These results are taken from the Kinase Knowledgebase extract (Sharma et al. 2016).

Where “and” joins values, the source holds several entries; their conditions need not be identical. Equal values may be shown once.

The term IC50 denotes the midpoint of a concentration-inhibition curve. Read a low IC50 as inhibition by little substance.

Sequence of PIK3CA (human) (P42336 whole entry, looked up): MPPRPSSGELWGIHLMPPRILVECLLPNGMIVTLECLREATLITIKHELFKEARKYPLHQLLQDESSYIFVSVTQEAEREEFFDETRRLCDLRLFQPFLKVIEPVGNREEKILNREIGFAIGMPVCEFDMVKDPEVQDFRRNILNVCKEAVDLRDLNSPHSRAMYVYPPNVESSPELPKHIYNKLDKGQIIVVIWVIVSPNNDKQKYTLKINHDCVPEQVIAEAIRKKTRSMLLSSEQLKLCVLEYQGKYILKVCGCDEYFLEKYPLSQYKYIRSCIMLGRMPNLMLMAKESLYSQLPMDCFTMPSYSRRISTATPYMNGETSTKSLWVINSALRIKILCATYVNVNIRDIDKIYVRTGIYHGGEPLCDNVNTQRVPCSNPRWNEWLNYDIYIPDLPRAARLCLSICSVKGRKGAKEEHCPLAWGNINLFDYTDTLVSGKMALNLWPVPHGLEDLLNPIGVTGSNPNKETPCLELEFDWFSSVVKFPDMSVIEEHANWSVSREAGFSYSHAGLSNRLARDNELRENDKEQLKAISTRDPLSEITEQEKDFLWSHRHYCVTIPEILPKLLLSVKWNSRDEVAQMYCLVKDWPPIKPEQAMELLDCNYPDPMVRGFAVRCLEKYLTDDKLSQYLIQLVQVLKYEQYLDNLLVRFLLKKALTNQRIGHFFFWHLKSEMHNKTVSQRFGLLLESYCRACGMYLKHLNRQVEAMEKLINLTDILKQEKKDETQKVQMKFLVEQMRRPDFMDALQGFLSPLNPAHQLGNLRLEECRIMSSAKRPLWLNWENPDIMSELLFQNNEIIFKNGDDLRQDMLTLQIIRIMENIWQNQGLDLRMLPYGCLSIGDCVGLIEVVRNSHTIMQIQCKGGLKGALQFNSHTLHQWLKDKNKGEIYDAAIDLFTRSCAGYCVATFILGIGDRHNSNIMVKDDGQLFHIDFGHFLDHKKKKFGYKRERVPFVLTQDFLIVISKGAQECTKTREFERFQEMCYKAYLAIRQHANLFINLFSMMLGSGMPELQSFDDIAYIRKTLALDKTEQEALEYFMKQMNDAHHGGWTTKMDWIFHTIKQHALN

The test addresses PIK3CA (human) (UniProt P42336). Put plainly: Inhibition of PIK3CA Kinase Activity.
With `Cc1nc(-c2cn3c(n2)-c2ccc(-c4ccnn4[C@H]4CCCN(C(C)(C)CO)C4)cc2OCC3)n(C(C)C)n1`, the IC50 worked out at 43 nM.
Next, `Cc1nc(-c2cn3c(n2)-c2cnc(-c4cnn(C)c4C4CCCN(C(C)C)C4)cc2OCC3)n(C(C)C)n1` (configuration not stated): 9.19 nM; `Cc1nc(-c2cn3c(n2)-c2ccc(N4CCC[C@@H]4C4CCN(C(C)C)CC4)cc2OCC3)n(C(C)C)n1`: 21.9 nM.
The result for `Cc1nc(-c2cn3c(n2)-c2cc(-c4ccnn4[C@H]4CCCN(C5COC5)C4)c(F)cc2OCC3)n(C(C)C)n1` reads 207 nM.
In the case of `CCN(CC)C1CCOC(c2c(-c3ccc4c(c3)OCCn3cc(-c5nc(C)nn5C(C)C)nc3-4)cnn2C)C1` (configuration not stated), the IC50 is 64.5 nM and 65.8 nM and 54.8 nM.
With `Cc1nc(-c2cn3c(n2)-c2cc(C(O)C4CCN(C)CC4)ccc2OCC3)n(C(C)C)n1` (configuration not stated), the IC50 is 193 nM.
The result for `Cc1nc(-c2cn3c(n2)-c2cc(-c4ccnn4[C@@H]4CCCN(C(C)C)C4)c(F)cc2OCC3)n(C(C)C)n1` reads 11.4 nM; that for `CC(C)n1nc(N)nc1-c1cn2c(n1)-c1ccc(-c3ccnn3C3CCN(C(C)(C)C)CC3)cc1OCC2`, 80.9 nM; that for `Cc1nc(-c2cn3c(n2)-c2cc([C@@H](C)N4CCN(C(C)(C)C)CC4)c(C)cc2OCC3)n(C(C)C)n1`, 52.2 nM.
Next, `Cc1nc(-c2cn3c(n2)-c2cc(C(C)N4CCN(C5COC5)CC4)c(C)cc2OCC3)n(C(C)C)n1` (configuration not stated): 126 nM; `Cc1nc(-c2cn3c(n2)-c2ccc(-c4cnn(C(C)C)c4CN4CCN(C(C)(C)C)CC4)cc2OCC3)n(C(C)C)n1`: 111 nM.
The result for `Cc1nc(-c2cn3c(n2)-c2cc([C@H](C)N4CCN(C(C)C)CC4)c(C)cc2OCC3)n(C(C)C)n1` reads 8.81 nM; that for `Cc1nc(-c2cn3c(n2)-c2cc([C@H](C)N4CCN(CC(C)(C)O)CC4)c(F)cc2OCC3)n(C(C)C)n1`, 724 nM; that for `Cc1nc(-c2cn3c(n2)-c2ccc(-c4cnc(C)n4C4CCCN(C(C)C)C4)cc2OCC3)n(C(C)C)n1` (configuration not stated), 145 nM.
For `CC(C)n1nc(CO)nc1-c1cn2c(n1)-c1ccc(-c3ccnn3C3CCN(C)CC3)cc1OCC2`, the half-inhibitory concentration (IC50) was 38.5 nM.
Next, `Cc1nc(-c2cn3c(n2)-c2ccc(OC4(CN5CCN(C)CC5)CC4)cc2OCC3)n(C(C)C)n1`: 86.4 nM; `Cc1nc(-c2cn3c(n2)-c2cc(C(=O)N4CCN(C(C)(C)C)CC4)c(F)cc2OCC3)n(C(C)C)n1`: 191 nM.
Regarding `Cc1nc(-c2cn3c(n2)-c2ccc(-c4cnn(C)c4N4CCN(C)[C@H](C(C)C)C4)cc2OCC3)n(C(C)C)n1`, the IC50 was found to be 2.34 nM.
On to `Cc1nc(-c2cn3c(n2)-c2ccc(-c4cn(C)nc4C4CCCN(C(C)C)C4)cc2OCC3)n(C(C)C)n1` (configuration not stated), for which the IC50 is 28.4 nM.
The result for `Cc1nc(-c2cn3c(n2)-c2ccc(-c4cnn(C)c4C4CCCCN4CC(C)(C)O)cc2OCC3)n(C(C)C)n1` (configuration not stated) reads 11.2 nM; that for `Cc1nc(-c2cn3c(n2)-c2ccc(-c4cnn(C)c4C4CCCN(C(C)(C)CO)C4)cc2OCC3)n(C(C)C)n1` (configuration not stated), 30.9 nM and 92.2 nM and 32 nM.
Next, `Cc1nc(-c2cn3c(n2)-c2cc([C@H](C)N4CCN(C(C)(C)C)CC4)ncc2OCC3)n(C(C)C)n1`: 217 nM; `Cc1nc(-c2cn3c(n2)-c2cc([C@H](C)N4CCN(C(C)(C)CO)CC4)ncc2OCC3)n(C(C)C)n1`: 180 nM.
Next, `Cc1nc(-c2cn3c(n2)-c2ccc(-c4ccnn4C4CCN(C(C)(C)C)CC4)cc2OCC3)n(C(C)C)n1`: 44.8 nM; `Cc1nc(-c2cn3c(n2)-c2ccc(-c4ccnn4C4CCCN(C(C)(C)CO)C4)cc2OCC3)n(C(C)C)n1` (configuration not stated): 14.4 nM; `Cc1nc(-c2cn3c(n2)-c2ccc(N4CCC4C4CCN(C)CC4)cc2OCC3)n(C(C)C)n1` (configuration not stated): 21.5 nM and 45.4 nM and 11.8 nM.
Molecule `Cc1nc(-c2cn3c(n2)-c2ccc(OC4(C)CNC4)cc2OCC3)n(C(C)C)n1` registered an IC50 of 6.2 nM.
The result for `CCN1CCC(C2CCCN2c2ccc3c(c2)OCCn2cc(-c4nc(C)nn4C(C)C)nc2-3)CC1` (configuration not stated) reads 18.9 nM; that for `Cc1nc(-c2cn3c(n2)-c2ccc(N4CCCC45CCCN(C)C5)cc2OCC3)n(C(C)C)n1` (configuration not stated), 12.9 nM and 5.23 nM and 16.8 nM.
Next, `Cc1nc(-c2cn3c(n2)-c2ccc(N4CCCC45CCCN(C(C)C)C5)cc2OCC3)n(C(C)C)n1` (configuration not stated): 72.8 nM; `COc1cc2c(cc1[C@@H](C)N1CCN(C(C)(C)C)CC1)-c1nc(-c3nc(C)nn3C(C)C)cn1CCO2`: 97.9 nM and 47.8 nM.
Next, `Cc1nc(-c2cn3c(n2)-c2cc([C@@H](C)N4CCN(C(C)C)CC4)c(C)cc2OCC3)n(C(C)C)n1`: 90 nM; `Cc1nc(-c2cn3c(n2)-c2ccc(N4CCCC4C4CCN(CC(C)(C)O)CC4)cc2OCC3)n(C(C)C)n1` (configuration not stated): 74.8 nM and 49.2 nM; `Cc1nc(-c2cn3c(n2)-c2cc([C@@H](C)N4CCN(C(C)(C)C)CC4)c(F)cc2OCC3)n(C(C)C)n1`: 372 nM.
`Cc1nc(-c2cn3c(n2)-c2ccc(-c4cnn(C(C)C)c4CN4CCN(C)CC4)cc2OCC3)n(C(C)C)n1` showed an IC50 of 112 nM.
Next, `Cc1nc(-c2cn3c(n2)-c2ccc(OC4(c5ccccc5)CN(C(C)C)C4)cc2OCC3)n(C(C)C)n1`: 105 nM; `Cc1nc(-c2cn3c(n2)-c2ccc(N4CCC[C@H]4CN4CCCC4)cc2OCC3)n(C(C)C)n1`: 6.32 nM.
